US6645973B1, “Spiro(2h-1-benzopyran-2,4-piperidine)derivatives as glycine transport inhibitors” (Akzo Nobel, priority 1999, dated 2003)
Where a name gives a salt, the structure may show the parent alone.

Compound | melting point
CN(C)c1ccc(C2=CC3(CCN(CC(=O)O)CC3)Oc3ccccc32)cc1F (as salt: hydrochloride) [Example 37, 1′-Carboxymethyl-4-(4-dimethylamino-3-fluorophenyl)spiro[2H-1-benzopyran-2,4′-piperidine]hydrochloride] | 231 to 239 °C
CN(C)c1c(F)cc(C2=CC3(CCN(CC(=O)O)CC3)Oc3ccccc32)cc1F (as salt: hydrochloride) [Example 38, 1′-Carboxymethyl-4-(3,5-difluoro-4-dimethylaminophenyl)spiro[2H-1-benzopyran-2,4′-piperidine]hydrochloride] | 231 to 242 °C
C=CCOc1c(F)cc(C2=CC3(CCN(CC(=O)O)CC3)Oc3ccccc32)cc1F (as salt: hydrochloride) [Example 55, 4-(4-Allyloxy-3,5-difluorophenyl)-1′-carboxymethylspiro[2H-1-benzopyran-2,4′-piperidine]hydrochloride] | 221 to 225 °C
C#CCOc1c(F)cc(C2=CC3(CCN(CC(=O)O)CC3)Oc3ccccc32)cc1F (as salt: hydrochloride) [Example 57, 1′-Carboxymethyl-4-(3,5-difluoro-4-propargyloxyphenyl)spiro[2H-1-benzopyran-2,4′-piperidine]hydrochloride] | 211 to 217 °C
O=C(O)CN1CCC2(C=C(c3cc(F)c(OCC(F)(F)F)c(F)c3)c3ccccc3O2)CC1 (as salt: hydrochloride) [Example 59, 1′-Carboxymethyl-4-(3,5-difluoro-4-trifluoroethoxyphenyl)spiro[2H-1-benzopyran-2,4′-piperidine]hydrochloride] | 244 to 251 °C
CCOC(=O)CN1CCC2(C=C(c3ccc(CC)cc3)c3ccccc3O2)CC1 [Example 65, Ethyl 4-(4-ethylphenyl)spiro[2H-1-benzopyran-2,4′-piperidine]-1′-acetate] | 119 to 121 °C
